# Source: ChEMBL document CHEMBL6109088 (J Med Chem, 2025)
# Key:
# in vivo [1] = details: rat, po
# in vitro [2] = details: dog, MDCK
# in vitro [3] = details: human, liver microsomes
# SARS-CoV-2 = experiment: microbe, parasite or virus in culture; details: Severe acute respiratory syndrome coronavirus 2, USA-WA1/2020, Vero C1008
# physchem = details: octanol/water
# in vivo [4] = details: male, Wistar Hannover, rat, po, 10 mg/kg
# in vivo [5] = details: male, Wistar Hannover, rat, plasma, iv, 1 mg/kg
# in vivo [6] = details: male, Wistar Hannover, rat, iv, 1 mg/kg
# in vivo [7] = details: male, Wistar Hannover, rat, iv, 1 mg/kg; remark: listed apart in the source
# in vivo [8] = details: male, Wistar Hannover, rat, po, 10 mg/kg; remark: listed apart in the source
# in vivo [9] = details: male, Wistar Hannover, rat, po, 10 mg/kg; remark: listed apart in the source
# in vivo [10] = details: male, Wistar Hannover, rat, po, 10 mg/kg; remark: listed apart in the source
# in vivo [11] = details: male, Wistar Hannover, rat, po, 10 mg/kg; remark: listed apart in the source
# in vivo [12] = details: male, Wistar Hannover, rat, po, 100 mg/kg
# in vivo [13] = details: male, Wistar Hannover, rat, po, 100 mg/kg; remark: listed apart in the source
# in vivo [14] = details: male, Wistar Hannover, rat, po, 100 mg/kg; remark: listed apart in the source
# in vivo [15] = details: male, cynomolgus monkey, iv, 1 mg/kg
# in vivo [16] = details: male, cynomolgus monkey, plasma, iv, 1 mg/kg
# in vivo [17] = details: male, cynomolgus monkey, iv, 1 mg/kg; remark: listed apart in the source
# in vivo [18] = details: male, cynomolgus monkey, iv, 1 mg/kg; remark: listed apart in the source
# in vivo [19] = details: male, Wistar Hannover, rat, po, 10 mg/kg; remark: listed apart in the source
# in vivo [20] = details: male, Wistar Hannover, rat, po, 10 mg/kg; remark: listed apart in the source
# in vivo [21] = details: male, Wistar Hannover, rat, po, 10 mg/kg; remark: listed apart in the source
# in vivo [22] = details: male, Wistar Hannover, rat, po, 100 mg/kg; remark: listed apart in the source
# in vivo [23] = details: male, Wistar Hannover, rat, po, 100 mg/kg; remark: listed apart in the source
# in vivo [24] = details: male, Wistar Hannover, rat, po, 100 mg/kg; remark: listed apart in the source
# in vivo [25] = details: male, cynomolgus monkey, po, 10 mg/kg
# in vivo [26] = details: male, cynomolgus monkey, po, 10 mg/kg; remark: listed apart in the source
# in vivo [27] = details: male, cynomolgus monkey, po, 10 mg/kg; remark: listed apart in the source
# in vivo [28] = details: male, cynomolgus monkey, po, 100 mg/kg
# in vivo [29] = details: male, cynomolgus monkey, po, 100 mg/kg; remark: listed apart in the source
# in vivo [30] = details: male, cynomolgus monkey, po, 100 mg/kg; remark: listed apart in the source
# in vivo [31] = details: male, cynomolgus monkey, po, 100 mg/kg; remark: listed apart in the source
# in vivo [32] = details: male, cynomolgus monkey, po, 100 mg/kg; remark: listed apart in the source
# in vivo [33] = details: male, cynomolgus monkey, po, 100 mg/kg; remark: listed apart in the source
# in vivo [34] = details: male, Wistar Hannover, rat, po, 10 mg/kg; remark: listed apart in the source
# in vivo [35] = details: male, Wistar Hannover, rat, po, 10 mg/kg; remark: listed apart in the source
# in vivo [36] = details: male, Wistar Hannover, rat, po, 10 mg/kg; remark: listed apart in the source
# in vivo [37] = details: male, Wistar Hannover, rat, plasma, iv, 1 mg/kg; remark: listed apart in the source
# in vivo [38] = details: male, Wistar Hannover, rat, iv, 1 mg/kg; remark: listed apart in the source
# in vivo [39] = details: male, Wistar Hannover, rat, iv, 1 mg/kg; remark: listed apart in the source
# in vivo [40] = details: male, Wistar Hannover, rat, po, 10 mg/kg; remark: listed apart in the source
# in vivo [41] = details: male, Wistar Hannover, rat, po, 10 mg/kg; remark: listed apart in the source
# in vivo [42] = details: male, cynomolgus monkey, po, 10 mg/kg; remark: listed apart in the source
# in vivo [43] = details: male, cynomolgus monkey, po, 10 mg/kg; remark: listed apart in the source
# in vivo [44] = details: male, cynomolgus monkey, iv, 1 mg/kg; remark: listed apart in the source
# in vivo [45] = details: male, cynomolgus monkey, po, 10 mg/kg; remark: listed apart in the source
# in vivo [46] = details: male, cynomolgus monkey, plasma, iv, 1 mg/kg; remark: listed apart in the source
# in vivo [47] = details: male, cynomolgus monkey, iv, 1 mg/kg; remark: listed apart in the source
# in vivo [48] = details: male, cynomolgus monkey, iv, 1 mg/kg; remark: listed apart in the source
# in vivo [49] = details: male, cynomolgus monkey, po, 10 mg/kg; remark: listed apart in the source
# in vivo [50] = details: male, Beagle, dog, po, 10 mg/kg
# in vivo [51] = details: male, Beagle, dog, po, 10 mg/kg; remark: listed apart in the source
# in vivo [52] = details: male, Beagle, dog, plasma, iv, 1 mg/kg
# in vivo [53] = details: male, Beagle, dog, iv, 1 mg/kg
# in vivo [54] = details: male, Beagle, dog, iv, 1 mg/kg; remark: listed apart in the source
# in vivo [55] = details: male, Beagle, dog, po, 10 mg/kg; remark: listed apart in the source
# in vivo [56] = details: male, Wistar Hannover, rat, iv, 1 mg/kg; remark: listed apart in the source
# in vivo [57] = details: male, Wistar Hannover, rat, iv, 1 mg/kg; remark: listed apart in the source
structure (smiles),measurement,setting,value
COC(=O)N[C@H](C(=O)N1C[C@H]2[C@@H]([C@H]1C(=O)N[C@H](C#N)C[C@@H]1CCNC1=O)C2(C)C)C(C)(C)C,bioavailability,in vivo [1],21%
same,Papp A→B,in vitro [2],0.61 ×10⁻⁶ cm/s
same,microsomal CLint,in vitro [3],8.1 µL/min/mg
CC(C)[C@H](NC(=O)C(F)(F)F)C(=O)N1C[C@H]2[C@@H]([C@H]1C(=O)N[C@H](C#N)C[C@@H]1CCNC1=O)C2(C)C,bioavailability,in vivo [1],20%
same,Papp A→B,in vitro [2],0.721 ×10⁻⁶ cm/s
same,microsomal CLint,in vitro [3],7.9 µL/min/mg
same,EC50,SARS-CoV-2,229 nM
CN(C)C(=O)N[C@H](C(=O)N1C[C@H]2[C@@H]([C@H]1C(=O)N[C@H](C#N)C[C@@H]1CCNC1=O)C2(C)C)C(C)(C)C,Papp A→B,in vitro [2],0.383 ×10⁻⁶ cm/s
same,microsomal CLint,in vitro [3],22.2 µL/min/mg
same,EC50,SARS-CoV-2,1780 nM
COc1cccc2[nH]c(C(=O)N[C@@H](CC(C)C)C(=O)N[C@H](C#N)C[C@@H]3CCNC3=O)cc12,bioavailability,in vivo [1],7%
same,Papp A→B,in vitro [2],0.945 ×10⁻⁶ cm/s
COCC(=O)[C@H](C[C@@H]1CCNC1=O)NC(=O)[C@@H]1[C@@H]2[C@H](CN1C(=O)[C@@H](NC(=O)C(F)(F)F)C(C)(C)C)C2(C)C,Papp A→B,in vitro [2],0.499 ×10⁻⁶ cm/s
same,microsomal CLint,in vitro [3],11.8 µL/min/mg
same,EC50,SARS-CoV-2,134 nM
COc1cccc2[nH]c(C(=O)N3C[C@H]4[C@@H]([C@H]3C(=O)N[C@@H](C[C@@H]3CCNC3=O)C(=O)c3nc5ccccc5s3)C4(C)C)cc12,Papp A→B,in vitro [2],7.3 ×10⁻⁶ cm/s
same,microsomal CLint,in vitro [3],337 µL/min/mg
same,logD,physchem,4.2
same,EC50,SARS-CoV-2,5590 nM
CC(C)(C)[C@H](NS(C)(=O)=O)C(=O)N1C[C@H]2[C@@H]([C@H]1C(=O)N[C@H](C#N)C[C@@H]1CCNC1=O)C2(C)C,bioavailability,in vivo [1],< 1%
same,Papp A→B,in vitro [2],< 0.193 ×10⁻⁶ cm/s
same,microsomal CLint,in vitro [3],11.4 µL/min/mg
same,EC50,SARS-CoV-2,540 nM
CC(C)(C)[C@H](NC(=O)C(F)(F)F)C(=O)N1C[C@H]2[C@@H]([C@H]1C(=O)N[C@H](C#N)C[C@@H]1CCNC1=O)C2(C)C,AUC(0-inf) at 4 h,in vivo [4],3190 ng·h/mL
same,clearance at 4 h,in vivo [5],27.2 mL/min/kg
same,Vd at 4 h,in vivo [6],1.8 L/kg
same,half-life at 4 h,in vivo [7],5.1 h
same,Cmax at 4 h,in vivo [8],1290 ng/mL
same,Tmax at 4 h,in vivo [9],1.5 h
same,half-life at 4 h,in vivo [10],4 h
same,bioavailability at 4 h,in vivo [11],50%
same,Tmax at 4 h,in vivo [12],0.75 h
same,AUC(0-inf) at 4 h,in vivo [13],68300 ng·h/mL
same,bioavailability at 4 h,in vivo [14],108%
same,AUC(0-inf),in vivo [15],977 ng·h/mL
same,clearance,in vivo [16],17.1 mL/min/kg
same,Vd,in vivo [17],0.33 L/kg
same,half-life,in vivo [18],0.79 h
same,Cmax at 4 h,in vivo [19],1450 ng/mL
same,AUC(0-inf) at 4 h,in vivo [20],2170 ng·h/mL
same,half-life at 4 h,in vivo [21],2.8 h
same,Tmax at 4 h,in vivo [22],1.4 h
same,AUC(0-inf) at 4 h,in vivo [23],18000 ng·h/mL
same,bioavailability at 4 h,in vivo [24],29%
same,Cmax,in vivo [25],1450 ng/mL
same,AUC(0-t),in vivo [26],831 ng·h/mL
same,bioavailability,in vivo [27],8.5%
same,Cmax,in vivo [28],16300 ng/mL
same,Tmax,in vivo [29],1 h
same,AUC(0-inf),in vivo [30],37200 ng·h/mL
same,Cmax,in vivo [31],1560 ng/mL
same,Tmax,in vivo [32],0.5 h
same,AUC(0-inf),in vivo [33],4400 ng·h/mL
same,Papp A→B,in vitro [2],1.71 ×10⁻⁶ cm/s
same,microsomal CLint,in vitro [3],24.5 µL/min/mg
CC(C)[C@H](NC(=O)C(F)(F)F)C(=O)N1C[C@H]2[C@@H]([C@H]1C(=O)N[C@@H](C[C@@H]1CCNC1=O)C(=O)c1noc(-c3ccccc3)n1)C2(C)C,Papp A→B,in vitro [2],3.5 ×10⁻⁶ cm/s
same,microsomal CLint,in vitro [3],40.5 µL/min/mg
same,EC50,SARS-CoV-2,194 nM
CC(C)(C)[C@H](NC(=O)C(F)(F)F)C(=O)N1C[C@H]2[C@@H]([C@H]1C(=O)N[C@@H](C[C@@H]1CCNC1=O)C(=O)CO)C2(C)C,Papp A→B,in vitro [2],< 0.481 ×10⁻⁶ cm/s
same,microsomal CLint,in vitro [3],< 7 µL/min/mg
same,EC50,SARS-CoV-2,< 331 nM
CC(C)[C@H](NC(=O)C(F)(F)F)C(=O)N1C[C@H]2[C@@H]([C@H]1C(=O)N[C@@H](C[C@@H]1CCNC1=O)C(=O)c1nc3ccccc3s1)C2(C)C,Cmax at 4 h,in vivo [34],521 ng/mL
same,Tmax at 4 h,in vivo [35],0.67 h
same,AUC(0-inf) at 4 h,in vivo [36],2310 ng·h/mL
same,clearance at 4 h,in vivo [37],31 mL/min/kg
same,half-life at 4 h,in vivo [38],6.8 h
same,Vd at 4 h,in vivo [39],2.16 L/kg
same,half-life at 4 h,in vivo [40],3.39 h
same,bioavailability at 4 h,in vivo [41],54.3%
same,Cmax,in vivo [42],331 ng/mL
same,Tmax,in vivo [43],1.5 h
same,AUC(0-inf),in vivo [44],977 ng·h/mL
same,AUC(0-inf),in vivo [45],505 ng·h/mL
same,clearance,in vivo [46],26 mL/min/kg
same,Vd,in vivo [47],0.58 L/kg
same,half-life,in vivo [48],1.08 h
same,bioavailability,in vivo [49],7.85%
same,Cmax,in vivo [50],383 ng/mL
same,Tmax,in vivo [51],0.75 h
same,clearance,in vivo [52],20.7 mL/min/kg
same,Vd,in vivo [53],1.1 L/kg
same,half-life,in vivo [54],0.9 h
same,half-life,in vivo [55],4.43 h
same,AUC(0-inf) at 4 h,in vivo [56],632 ng·h/mL
same,bioavailability,in vivo [1],54%
same,AUC(0-inf) at 4 h,in vivo [57],538 ng·h/mL
same,Papp A→B,in vitro [2],13.1 ×10⁻⁶ cm/s
same,microsomal CLint,in vitro [3],30.3 µL/min/mg
same,logD,physchem,3
same,EC50,SARS-CoV-2,85.3 nM
